Measurements published in ChEMBL document CHEMBL1145761 (Bioorg Med Chem Lett, 2003).

Target: Neuronal acetylcholine receptor; alpha4/beta2 (Rattus norvegicus, UniProt P09483+P12390)
Assay: Affinity at alpha4-beta2 nACh receptors in rat brain (minus cerebellum) homogenates.
Format: tissue-based

Neuronal acetylcholine receptor; alpha4/beta2, sequence (P09483 whole entry): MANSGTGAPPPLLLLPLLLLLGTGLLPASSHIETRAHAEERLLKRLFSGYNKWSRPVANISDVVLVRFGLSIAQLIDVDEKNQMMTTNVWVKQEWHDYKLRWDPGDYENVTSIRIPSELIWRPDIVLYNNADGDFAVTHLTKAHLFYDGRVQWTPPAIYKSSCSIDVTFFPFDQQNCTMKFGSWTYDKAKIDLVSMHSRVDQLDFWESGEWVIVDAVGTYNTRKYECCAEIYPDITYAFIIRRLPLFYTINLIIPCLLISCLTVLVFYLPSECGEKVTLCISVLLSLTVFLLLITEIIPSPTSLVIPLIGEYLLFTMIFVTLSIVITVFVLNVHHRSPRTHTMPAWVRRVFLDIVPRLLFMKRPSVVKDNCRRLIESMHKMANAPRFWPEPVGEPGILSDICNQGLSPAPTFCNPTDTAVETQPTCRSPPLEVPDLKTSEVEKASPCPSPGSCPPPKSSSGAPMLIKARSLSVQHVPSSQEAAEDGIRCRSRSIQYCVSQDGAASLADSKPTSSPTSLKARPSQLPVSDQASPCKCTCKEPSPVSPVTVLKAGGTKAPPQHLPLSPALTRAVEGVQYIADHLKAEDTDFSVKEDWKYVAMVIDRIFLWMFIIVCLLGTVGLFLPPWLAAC
Neuronal acetylcholine receptor; alpha4/beta2, sequence (P12390 whole entry): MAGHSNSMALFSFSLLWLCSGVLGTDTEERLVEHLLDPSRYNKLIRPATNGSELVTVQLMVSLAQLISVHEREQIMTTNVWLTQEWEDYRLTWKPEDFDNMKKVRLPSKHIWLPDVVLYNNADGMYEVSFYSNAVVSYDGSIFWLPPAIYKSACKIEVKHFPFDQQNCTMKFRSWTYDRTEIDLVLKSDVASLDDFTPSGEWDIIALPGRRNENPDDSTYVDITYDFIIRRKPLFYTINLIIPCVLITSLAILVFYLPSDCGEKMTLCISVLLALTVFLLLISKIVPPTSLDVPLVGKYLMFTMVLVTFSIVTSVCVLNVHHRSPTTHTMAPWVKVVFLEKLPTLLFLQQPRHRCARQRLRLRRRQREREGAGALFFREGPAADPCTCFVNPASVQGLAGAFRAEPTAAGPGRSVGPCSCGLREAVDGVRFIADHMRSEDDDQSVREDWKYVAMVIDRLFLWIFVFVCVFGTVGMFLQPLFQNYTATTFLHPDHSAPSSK

Row | Compound | Ki [nM]
1 | c1ccc(CN2CCCC2c2cccnc2)cc1 (stereo unspecified) | 360
2 | CN1CCN=C1Cc1ccc(Cl)nc1 | 3.3
3 | CN1CCCC1c1ccc(Cl)nc1 (stereo unspecified) | 0.6
4 | CN1CCCC1c1cnc2ccccc2c1 (stereo unspecified) | 11
5 | CN1CCCC1c1ccc(Br)nc1 (stereo unspecified) | 0.5
6 | CN1CCN=C1Cc1cnc2ccccc2c1 | 38
7 | CN1CCCC1c1ccc(-c2ccccc2)nc1 (stereo unspecified) | 9440
8 | c1cncc(C2=NCCC2)c1 [MYOSMINE] | 3300
9 | CN1CCN=C1Cc1ccc(-c2ccccc2)nc1 | 3260
10 | COc1ccc(CC2=NCCN2C)cn1 | 46
11 | CN1CCN=C1Cc1ccc(Br)nc1 | 7.3
